In ChEMBL document CHEMBL1201862, “PubChem BioAssay data set” (2004):
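Results reflect a 48-hour exposure of cells in 96-well plates to compound at five concentrations. The concentration for 50% growth inhibition is given as GI50.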 The source made the active and inactive calls. Rule as the data show it: active = GI50 up to about 1.1 µM and inactive = higher.

How the values were obtained:
Experiment in all cases: NCI tumour cell line growth inhibition, 48 h
CAKI-1 = tested on: CAKI-1
EKVX = tested on: EKVX
HCC 2998 = tested on: HCC 2998
HOP-62 = tested on: HOP-62
HOP-92 = tested on: HOP-92
IGROV-1 = tested on: IGROV-1
K562 = tested on: K562
M14 = tested on: M14
Malme-3M = tested on: Malme-3M
NCI-H23 = tested on: NCI-H23
NCI-H522 = tested on: NCI-H522
OVCAR-4 = tested on: OVCAR-4
OVCAR-5 = tested on: OVCAR-5
OVCAR-8 = tested on: OVCAR-8
RPMI-8226 = tested on: RPMI-8226
SK-MEL-5 = tested on: SK-MEL-5
UACC-257 = tested on: UACC-257
UO-31 = tested on: UO-31
ACHN = tested on: ACHN
MCF7 = tested on: MCF7

Measured: GI50

O=C(O)c1ccc([I+]c2ccccc2)cc1
inactive: CAKI-1 > 100 µM | EKVX > 100 µM | HCC 2998 > 100 µM | HOP-62 > 100 µM | HOP-92 > 100 µM | IGROV-1 > 100 µM | K562 > 100 µM | M14 > 100 µM | Malme-3M > 100 µM | NCI-H23 > 100 µM | NCI-H522 > 100 µM | OVCAR-4 > 100 µM | OVCAR-5 > 100 µM | OVCAR-8 > 100 µM | RPMI-8226 > 100 µM | SK-MEL-5 > 100 µM | UACC-257 > 100 µM | UO-31 > 100 µM

S=C1Nc2ccccc2SC1c1ccccc1 (configuration not stated)
inactive: ACHN 69.3 µM | CAKI-1 > 100 µM | EKVX > 100 µM | HOP-62 24.8 µM | IGROV-1 > 100 µM | K562 94.8 µM | M14 > 100 µM | MCF7 > 100 µM | Malme-3M 92.3 µM | NCI-H23 74.6 µM | NCI-H522 > 100 µM | OVCAR-4 46 µM | OVCAR-5 > 100 µM | OVCAR-8 > 100 µM | RPMI-8226 > 100 µM | SK-MEL-5 > 100 µM | UACC-257 > 100 µM | UO-31 > 100 µM

COC(=O)/C(C#N)=C1\CCC(C(=O)OC)N1C (configuration not stated)
inactive: CAKI-1 > 100 µM | EKVX > 100 µM | HCC 2998 > 100 µM | HOP-62 > 100 µM | HOP-92 > 100 µM | IGROV-1 > 100 µM | K562 > 100 µM | M14 > 100 µM | NCI-H23 > 100 µM | NCI-H522 > 100 µM | OVCAR-4 > 100 µM | OVCAR-8 > 100 µM | RPMI-8226 > 100 µM | SK-MEL-5 > 100 µM | UACC-257 > 100 µM | UO-31 > 100 µM

CC(/C(=N/NC(=O)C(N)=O)c1c(Cl)ccc(Cl)c1O)C1(O)C(=O)Nc2ccccc21 (configuration not stated)
inactive: ACHN 26.5 µM | CAKI-1 42.1 µM | EKVX 43.3 µM | HCC 2998 65.3 µM | HOP-62 > 100 µM | HOP-92 27.8 µM | IGROV-1 29.9 µM | K562 31 µM | M14 68.7 µM | Malme-3M 64.9 µM | NCI-H23 50.6 µM | NCI-H522 19.2 µM | OVCAR-4 29.6 µM | OVCAR-5 34.8 µM | OVCAR-8 29.7 µM | SK-MEL-5 34.6 µM | UACC-257 53.3 µM | UO-31 38 µM

C[C@H]1ON2CCC[C@@H]2[C@@H]1C(=O)N1C2CC3CCC2(CS1(=O)=O)C3(C)C (some centres not stated)
inactive: ACHN > 100 µM | CAKI-1 > 100 µM | EKVX > 100 µM | HCC 2998 > 100 µM | HOP-62 > 100 µM | IGROV-1 > 100 µM | K562 > 100 µM | M14 > 100 µM | MCF7 > 100 µM | Malme-3M > 100 µM | NCI-H23 > 100 µM | NCI-H522 > 100 µM | OVCAR-4 > 100 µM | OVCAR-5 > 100 µM | OVCAR-8 > 100 µM | SK-MEL-5 > 100 µM | UACC-257 > 100 µM

Cc1cccc(N2C(=O)C(=O)C(c3nc4ccccc4s3)/C(=N/NC(=S)NN)C2=O)c1C (configuration not stated)
inactive: ACHN > 100 µM | CAKI-1 > 100 µM | EKVX > 100 µM | HCC 2998 > 100 µM | HOP-62 > 100 µM | HOP-92 > 100 µM | IGROV-1 > 100 µM | K562 > 100 µM | M14 > 100 µM | Malme-3M > 100 µM | NCI-H23 > 100 µM | NCI-H522 > 100 µM | OVCAR-4 > 100 µM | OVCAR-5 > 100 µM | OVCAR-8 > 100 µM | RPMI-8226 > 100 µM | SK-MEL-5 > 100 µM | UACC-257 > 100 µM | UO-31 > 100 µM

O=C1CN(c2cccc(C(F)(F)F)c2)C(=O)CN1NCNN1CC(=O)N(c2cccc(C(F)(F)F)c2)CC1=O
inactive: ACHN > 100 µM | EKVX > 100 µM | HCC 2998 > 100 µM | HOP-62 > 100 µM | IGROV-1 > 100 µM | K562 > 100 µM | M14 > 100 µM | MCF7 > 100 µM | NCI-H522 52.5 µM | OVCAR-5 > 100 µM | OVCAR-8 > 100 µM | RPMI-8226 > 100 µM | SK-MEL-5 > 100 µM | UACC-257 > 100 µM | UO-31 > 100 µM

CN(C)CCn1c(=O)oc2cc(C(=O)CN3CCOCC3)ccc21
inactive: ACHN > 100 µM | CAKI-1 > 100 µM | EKVX > 100 µM | HOP-62 > 100 µM | IGROV-1 > 100 µM | K562 > 100 µM | M14 > 100 µM | MCF7 > 100 µM | Malme-3M > 100 µM | NCI-H23 > 100 µM | OVCAR-5 > 100 µM | OVCAR-8 > 100 µM | RPMI-8226 > 100 µM | SK-MEL-5 > 100 µM | UACC-257 > 100 µM | UO-31 88.1 µM

Cc1cccc(C)c1CO
inactive: ACHN > 100 µM | CAKI-1 > 100 µM | EKVX > 100 µM | HCC 2998 > 100 µM | HOP-62 > 100 µM | HOP-92 > 100 µM | IGROV-1 > 100 µM | K562 > 100 µM | M14 > 100 µM | Malme-3M > 100 µM | NCI-H23 > 100 µM | NCI-H522 > 100 µM | OVCAR-4 > 100 µM | OVCAR-5 > 100 µM | OVCAR-8 > 100 µM | RPMI-8226 > 100 µM | UACC-257 > 100 µM | UO-31 > 100 µM

C(=N\Nc1ccccc1)/c1nc2ccccc2nc1/C=N/Nc1ccccc1
inactive: ACHN 11.8 µM | CAKI-1 7.71 µM | EKVX 22.1 µM | HCC 2998 8.02 µM | HOP-62 15.9 µM | HOP-92 17.5 µM | IGROV-1 12.1 µM | K562 7.6 µM | M14 14.7 µM | Malme-3M 24.9 µM | NCI-H23 13.3 µM | NCI-H522 16.5 µM | OVCAR-4 27.8 µM | OVCAR-5 27 µM | OVCAR-8 6.75 µM | SK-MEL-5 19 µM | UACC-257 23 µM | UO-31 32.2 µM

COc1cc(C2C(C(=O)Nc3ccccc3)=C(C)NC(C)=C2C(=O)Nc2ccccc2)ccc1O
inactive: ACHN 98.9 µM | EKVX 83.4 µM | HCC 2998 27 µM | HOP-62 > 100 µM | HOP-92 19.3 µM | IGROV-1 37 µM | K562 30.6 µM | Malme-3M 41.2 µM | NCI-H23 39.5 µM | NCI-H522 > 10 µM | OVCAR-4 29.1 µM | OVCAR-5 > 100 µM | OVCAR-8 30.1 µM | RPMI-8226 26.4 µM | UACC-257 61.9 µM | UO-31 97.1 µM

O=C1C=CC(=O)c2cc(Sc3ccccc3)c(=O)c(Sc3ccccc3)cc21
inactive: ACHN 12.8 µM | CAKI-1 > 100 µM | EKVX > 100 µM | HCC 2998 > 100 µM | HOP-62 > 100 µM | HOP-92 18.9 µM | IGROV-1 68.5 µM | K562 28.1 µM | M14 > 100 µM | NCI-H23 47.2 µM | NCI-H522 12.4 µM | OVCAR-4 53.3 µM | OVCAR-8 31.7 µM | RPMI-8226 37.3 µM | SK-MEL-5 > 100 µM | UACC-257 > 100 µM | UO-31 37.8 µM

CCCCCC/C(CC(=O)CCC(=O)NCCc1ccccc1)=N\Nc1ccc([N+](=O)[O-])cc1[N+](=O)[O-]
inactive: ACHN 97.7 µM | CAKI-1 > 100 µM | EKVX 38.7 µM | HCC 2998 > 100 µM | HOP-62 > 100 µM | HOP-92 41.7 µM | IGROV-1 > 100 µM | K562 38.1 µM | M14 > 100 µM | Malme-3M > 100 µM | NCI-H23 45 µM | NCI-H522 39.9 µM | OVCAR-5 > 100 µM | OVCAR-8 89.3 µM | RPMI-8226 27 µM | SK-MEL-5 70.1 µM | UACC-257 74.8 µM | UO-31 61.9 µM

COC(=O)C1=C(O)C(O)=C(C(=O)OC)CC1
inactive: ACHN > 100 µM | CAKI-1 > 100 µM | EKVX > 100 µM | HCC 2998 > 100 µM | HOP-62 > 100 µM | HOP-92 > 100 µM | IGROV-1 > 100 µM | K562 > 100 µM | M14 > 100 µM | Malme-3M > 100 µM | NCI-H23 > 100 µM | NCI-H522 > 100 µM | OVCAR-4 > 100 µM | OVCAR-5 > 100 µM | OVCAR-8 > 100 µM | RPMI-8226 > 100 µM | SK-MEL-5 > 100 µM | UACC-257 > 100 µM | UO-31 > 100 µM

C[n+]1c(-c2ccc(/C=N/NC(=S)N/N=C/c3ccc(-c4cn5ccsc5[n+]4C)cc3)cc2)cn2ccsc21
inactive: ACHN > 100 µM | EKVX > 100 µM | HCC 2998 > 100 µM | HOP-62 > 100 µM | IGROV-1 > 100 µM | K562 > 10 µM | M14 > 100 µM | MCF7 > 100 µM | NCI-H522 > 100 µM | OVCAR-4 > 100 µM | OVCAR-5 > 100 µM | OVCAR-8 > 100 µM | RPMI-8226 62.1 µM | SK-MEL-5 > 100 µM | UACC-257 > 100 µM | UO-31 > 100 µM

CN(C)C(=O)Oc1ccc[n+](C)c1 [PYRIDOSTIGMINE BROMIDE]
inactive: ACHN > 100 µM | CAKI-1 > 100 µM | EKVX > 100 µM | HCC 2998 > 100 µM | HOP-62 > 100 µM | IGROV-1 > 100 µM | K562 > 100 µM | MCF7 > 100 µM | Malme-3M > 100 µM | NCI-H23 > 100 µM | NCI-H522 > 100 µM | OVCAR-4 > 100 µM | OVCAR-5 > 100 µM | OVCAR-8 > 100 µM | RPMI-8226 > 100 µM | SK-MEL-5 > 100 µM | UACC-257 > 100 µM | UO-31 > 100 µM
